The text below walks through data of patent US4137236A, “Amino-spiro[oxa(or thia)cycloalkane-penam]-carboxylic” (U C B, Societe Anonyme, priority 1977, dated 1979).

Assay [1] concerns beta-lactamase TEM. The assay is described as follows: Rate of hydrolysis by beta-lactamase measured as NaOH consumed per minute. Type of assay: biochemical. From the text:
This method allows the dosage of the penicilloic acid resulting from the hydrolysis of the beta-lactam function by the lytic enzyme. The results of these kinetics, as given in the following Table, clearly show the superiority of compounds E and H as compared with pencillin G.

The subject of assay [2] is Escherichia coli B. The assay can be described thus: MIC in gelose culture medium (relative to reference penicillin). Particulars: E.COLI B. Type of assay: cell-based. On the procedure: This is a well-known collection strain of Escherichia coli which produces very little beta-lactamase (of type I) and is, therefore, very sensitive to penicillins. As regards the classification of the beta-lactamases, use is here made of that proposed by M. H. RICHMOND and R. B. SYKES (see Advances in Microbial Physiology,9,(1973),pp.43 and 45).
(§1) For a certain number of compounds of formula (XV), the minimum inhibitory concentration (MIC) was determined as follows:
(§2) The products to be tested are introduced in increasing concentrations into a gelose culture medium in Petri dishes. A multiple inoculator is used to deposit simultaneously drops (10 microliters) of inoculum (suspension of approximately 10^5 bacteria per ml) onto the surface of the medium. After incubation at 37° C for 24 hours, the growth of the bacteria is observed. By definition, the MIC is expressed by the minimum concentration of tested compound which inhibits the multiplication of the bacteia. In the following results, however, the MIC is given as being equal to 1 for the reference compounds and the activity figures given for the tested compounds of formula (XV) are, therefore, relative values. This presentation of the results is more correct and the most reproducible because, for one and the same bacterial strain, different MIC values can be observed if they are measured at different times. This is bound up with the "seasonal" variations in the strains and their nutrient medium.

In assay [3] the test system is Staphylococcus aureus 6538. The description is as above. It counts as cell-based. Particulars: S.AUREUS 6538. On the procedure: This is a Gram-positive coccus which is particularly sensitive to penicillins and which has a low resistance mechanism. This strain of Staphylococcus is, therefore, representative of a maximum sensitivity of the species.
as §1, §2

Assay [4] concerns Staphylococcus aureus 52149. Described as above. Type of assay: cell-based. Particulars: S.AUREUS 52149. Here is the method:
This is a Gram-positive coccus, the intrinsic sensitivity of the receptor of which is equivalent to that of the preceding strain but which produces a beta-lactamase which is typical of the species and which renders it resistant to all the penicillins which are sensitive to hydrolysis.
as §1, §2

Assay [5] has as its system Escherichia coli B-Ampi R. Described as above. Type of assay: cell-based. Particulars: E.COLI B AMPI-R. Here is the method: This is a mutant of the preceding strain which we have produced.
as §1, §2

For assay [6], the system named is Gram-positive and Gram-negative bacteria. The assay can be described thus: Comparative antibacterial activity spectra. Type of assay: cell-based. The following applies: towards both Gram-positive and Gram-negative bacteria. On the procedure:
as §2

Where [7] appears, read: reference 6-amino-penicillanic acid = 1.

As for `O=C(Cc1ccccc1)NC1C(=O)N2C1SC1(CC[S+]([O-])CC1)C2C(=O)O` (centres unmarked) [Compound H, 6-(2"-phenylacetamido)-2',3',5',6'-tetrahydro-spiro[penam-2,4'-[4H]thiopyran]-3-carboxylic acid 1'-oxide], in assay [1], the “Rate of hydrolysis: microliters 0.005 N NaOH consumed per minute” value is given as 0.50 microliters 0.005 N NaOH per m. In addition, the “MIC relative to reference compound (=1)” value in assay [2] (reference penicillin G = 1), in assay [3] (reference penicillin G = 1) and in assay [4] (reference penicillin G = 1) was 1 each time.
On to `N[C@@H]1C(=O)N2[C@@H]1SC1(CCOCC1)[C@@H]2C(=O)O` (relative stereo) [Compound D, 6-amino-2',3',5',6'-tetrahydro-spiro[penam-2,4'-[4H]-pyran]-3-carboxylic acid], for which the “MIC relative to reference compound (=1)” value was determined as 0.3 in assay [2] (setting [7]), 0.5 in assay [3] (setting [7]), 0.5 in assay [4] (setting [7]) and 0.3 in assay [5] (setting [7]). For the same compound, in assay [6], the “Activity as compared with 6-amino-penicillanic acid (in words)” value is reported as “better activity”.
For `O=C(Cc1ccccc1)N[C@@H]1C(=O)N2[C@@H]1SC1(CCSCC1)[C@@H]2C(=O)O` (relative stereo) [Compound E, 6-(2"-phenylacetamido)-2',3',5',6'-tetrahydro-spiro[penam-2,4'-[4H]thiopyran]-3-carboxylic acid], the “Rate of hydrolysis: microliters 0.005 N NaOH consumed per minute” value in assay [1] is 0.64 microliters 0.005 N NaOH per m. The “MIC relative to reference compound (=1)” value in assay [2] (reference penicillin G = 1) was 5; in assay [3] (reference penicillin G = 1), 10; in assay [4] (reference penicillin G = 1), 1; in assay [5] (reference penicillin G = 1), more than 2.
